Where “and” joins values, the source holds several entries; their conditions need not be identical. Identical values can stand only once. Inconclusive results and toxic doses are left out. Rule as the data show it: active = T/C of 150% or more; inactive = T/C below 125%.
System: L1210 leukemia ip in BDF1 mice, survival T/C
Experiment: NCI In Vivo Anticancer Drug Screen. Data for tumor model L1210 Leukemia (intraperitoneal) in B6D2F1 (BDF1) mice
Details: endpoint: mean survival time, higher = longer survival
How it was run: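 Survival endpoint. Drug-treated group vs vehicle group, expressed as T divided by C. Tumor passaged by transplantation.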

[1] = dose: 100.0 mg/kg/injection, schedule: Q01DX001 (ip), vehicle: Klucel (hydroxypropylcellulose) (HPC)
[2] = dose: 200.0 mg/kg/injection, schedule: Q01DX001 (ip), vehicle: Klucel (hydroxypropylcellulose) (HPC)
[3] = dose: 400.0 mg/kg/injection, schedule: Q01DX001 (ip), vehicle: Klucel (hydroxypropylcellulose) (HPC)
[4] = dose: 100.0 mg/kg/injection, schedule: Q01DX009 (ip), vehicle: Klucel (hydroxypropylcellulose) (HPC)
[5] = dose: 100.0 mg/kg/injection, schedule: Q04DX003 (ip), vehicle: Klucel (hydroxypropylcellulose) (HPC)
[6] = dose: 200.0 mg/kg/injection, schedule: Q01DX009 (ip), vehicle: Klucel (hydroxypropylcellulose) (HPC)
[7] = dose: 200.0 mg/kg/injection, schedule: Q04DX003 (ip), vehicle: Klucel (hydroxypropylcellulose) (HPC)
[8] = dose: 400.0 mg/kg/injection, schedule: Q01DX009 (ip), vehicle: Klucel (hydroxypropylcellulose) (HPC)
[9] = dose: 400.0 mg/kg/injection, schedule: Q04DX003 (ip), vehicle: Klucel (hydroxypropylcellulose) (HPC)
[10] = dose: 100.0 mg/kg/injection, schedule: Q01DX001 (ip), vehicle: carboxymethylcellulose (CMC)
[11] = dose: 200.0 mg/kg/injection, schedule: Q01DX001 (ip), vehicle: carboxymethylcellulose (CMC)
[12] = dose: 400.0 mg/kg/injection, schedule: Q01DX001 (ip), vehicle: carboxymethylcellulose (CMC)

Measured: T/C

COc1nc(C)c(C)[n+]([O-])n1
inactive: dose: 12.5 mg/kg/injection, schedule: Q01DX001 (ip), vehicle: saline with Tween-80 94 % of control | dose: 12.5 mg/kg/injection, schedule: Q01DX009 (ip), vehicle: saline with Tween-80 96 % of control | dose: 12.5 mg/kg/injection, schedule: Q04DX003 (ip), vehicle: saline with Tween-80 97 % of control | dose: 25.0 mg/kg/injection, schedule: Q01DX001 (ip), vehicle: saline with Tween-80 100 % of control | dose: 25.0 mg/kg/injection, schedule: Q01DX009 (ip), vehicle: saline with Tween-80 108 % of control | dose: 25.0 mg/kg/injection, schedule: Q04DX003 (ip), vehicle: saline with Tween-80 110 % of control | dose: 50.0 mg/kg/injection, schedule: Q01DX001 (ip), vehicle: saline with Tween-80 107 % of control | dose: 50.0 mg/kg/injection, schedule: Q01DX009 (ip), vehicle: saline with Tween-80 96 % of control | dose: 50.0 mg/kg/injection, schedule: Q04DX003 (ip), vehicle: saline with Tween-80 94 % of control

CC(=O)NC(=O)NC(=O)CC#N
inactive: [1] 90 % of control | [2] 88 % of control | [3] 93 % of control

Cc1c(Cl)cccc1NC(=O)c1cccc(C(=O)Nc2cccc(Cl)c2C)c1
inactive: [4] 112 % of control | [5] 91 % of control | [6] 93 % of control | [7] 90 % of control | [8] 88 % of control | [9] 98 % of control

CCn1c2ccccc2c2cc(N=C3C(=O)N(C)c4ccccc43)ccc21
inactive: [10] 95 % of control | [11] 95 % of control | [12] 95 % of control

Nc1nc(NCCCc2ccccc2)c([N+](=O)[O-])c(=O)[nH]1
inactive: dose: 100.0 mg/kg/injection, schedule: Q01DX009 (ip), vehicle: saline with Tween-80 93 % of control | dose: 200.0 mg/kg/injection, schedule: Q01DX009 (ip), vehicle: saline with Tween-80 97 % of control

CC(=O)NC(CSC(=N)N)C(=O)O (configuration not stated)
inactive: dose: 50.0 mg/kg/injection, schedule: Q01DX001 (ip), vehicle: carboxymethylcellulose (CMC) 107 % of control | [10] 98 % of control | [11] 98 % of control | [12] 102 % of control

Nc1cc2c(cc1Br)[nH]c(=O)c1ccccc12
inactive: [10] 98 % of control | [11] 96 % of control | [12] 93 % of control

c1ccc(CSCCSCc2ccccc2)cc1
inactive: dose: 87.5 mg/kg/injection, schedule: Q01DX009 (ip), vehicle: other 95 % of control | dose: 175.0 mg/kg/injection, schedule: Q01DX009 (ip), vehicle: other 101 % of control | dose: 350.0 mg/kg/injection, schedule: Q01DX009 (ip), vehicle: other 104 % of control

OCP(CO)CO.[Cl][Hg][Cl]
inactive: dose: 30.0 mg/kg/injection, schedule: Q01DX001 (ip), vehicle: saline 119 % of control

Cc1cc(Cl)ccc1NC(=O)OCCSc1ccc(Cl)cc1
inactive: dose: 100.0 mg/kg/injection, schedule: Q01DX001 (ip), vehicle: gum acacia 94 % of control | dose: 100.0 mg/kg/injection, schedule: Q01DX009 (ip), vehicle: gum acacia 94 % of control and 95 % of control | dose: 100.0 mg/kg/injection, schedule: Q04DX003 (ip), vehicle: gum acacia 93 % of control and 94 % of control | dose: 200.0 mg/kg/injection, schedule: Q01DX001 (ip), vehicle: gum acacia 101 % of control | dose: 200.0 mg/kg/injection, schedule: Q01DX009 (ip), vehicle: gum acacia 97 % of control and 91 % of control | dose: 200.0 mg/kg/injection, schedule: Q04DX003 (ip), vehicle: gum acacia 97 % of control | dose: 400.0 mg/kg/injection, schedule: Q01DX001 (ip), vehicle: gum acacia 101 % of control | dose: 400.0 mg/kg/injection, schedule: Q01DX009 (ip), vehicle: gum acacia 93 % of control and 98 % of control | dose: 400.0 mg/kg/injection, schedule: Q04DX003 (ip), vehicle: gum acacia 95 % of control and 90 % of control

COc1ccc(C(=O)CBr)cc1OC
inactive: [10] 96 % of control

CN(C)C(=O)CCCc1ccc(N(CCCl)CCCl)cc1
inactive: dose: 4.0 mg/kg/injection, schedule: Q12HX018 (ip), vehicle: other 108 % of control | dose: 6.0 mg/kg/injection, schedule: Q12HX018 (ip), vehicle: other 97 % of control | dose: 8.0 mg/kg/injection, schedule: Q12HX018 (ip), vehicle: other 103 % of control | [10] 123 % of control | [11] 118 % of control | [12] 103 % of control

Cc1cccc(NC(=O)CCl)c1C
inactive: [4] 100 % of control | [5] 100 % of control | [6] 87 % of control | [7] 100 % of control

O=C(N/N=C\c1c(O)ccc2ccccc12)c1ccncc1
inactive: [5] 106 % of control | [7] 101 % of control | [9] 108 % of control

CCOC(=O)C(=O)Cc1sccc1[N+](=O)[O-]
inactive: [4] 93 % of control | [5] 94 % of control | [6] 94 % of control | [7] 92 % of control | [8] 100 % of control | [9] 100 % of control

COC(=O)/C=C1/OC(=O)CC1(C)C
inactive: [1] 106 % of control | dose: 100.0 mg/kg/injection, schedule: Q01DX009 (ip), vehicle: saline sonified 100 % of control | [2] 104 % of control | dose: 200.0 mg/kg/injection, schedule: Q01DX009 (ip), vehicle: saline sonified 96 % of control | [3] 107 % of control | dose: 400.0 mg/kg/injection, schedule: Q01DX009 (ip), vehicle: saline sonified 100 % of control

O=CNC(CSSCC(NC=O)C(=O)O)C(=O)O (configuration not stated)
inactive: dose: 100.0 mg/kg/injection, schedule: Q04DX003 (ip), vehicle: saline with Tween-80 101 % of control | dose: 200.0 mg/kg/injection, schedule: Q04DX003 (ip), vehicle: saline with Tween-80 103 % of control | dose: 400.0 mg/kg/injection, schedule: Q04DX003 (ip), vehicle: saline with Tween-80 90 % of control

O=C(NCCCl)Nc1c2ccccc2nc2ccccc12
inactive: [4] 97 % of control | [5] 103 % of control | [6] 89 % of control | [7] 103 % of control | [9] 104 % of control

O=C(Nc1ccc(C(c2ccccc2)(c2ccccc2)c2ccccc2)cc1)C(Cl)Cl
inactive: [4] 91 % of control | [5] 96 % of control | [6] 97 % of control | [7] 95 % of control | [8] 97 % of control | [9] 94 % of control

CC(C)c1sc([S-])n[n+]1-c1ccccc1
inactive: dose: 100.0 mg/kg/injection, schedule: Q01DX001 (ip), vehicle: saline 104 % of control | dose: 100.0 mg/kg/injection, schedule: Q04DX003 (ip), vehicle: saline 101 % of control | dose: 200.0 mg/kg/injection, schedule: Q01DX001 (ip), vehicle: saline 101 % of control | dose: 200.0 mg/kg/injection, schedule: Q04DX003 (ip), vehicle: saline 95 % of control | dose: 400.0 mg/kg/injection, schedule: Q01DX001 (ip), vehicle: saline 91 % of control | dose: 400.0 mg/kg/injection, schedule: Q04DX003 (ip), vehicle: saline 101 % of control

CC(=O)OC1C(CF)OC(n2ccc(=O)[nH]c2=O)C1OC(C)=O (configuration not stated)
inactive: dose: 100.0 mg/kg/injection, schedule: Q01DX005 (ip), vehicle: saline 105 % of control | dose: 200.0 mg/kg/injection, schedule: Q01DX005 (ip), vehicle: saline 123 % of control

S=c1n(CN2CCCCC2)c2cncnc2n1CN1CCCCC1
inactive: dose: 75.0 mg/kg/injection, schedule: Q01DX Z (ip), vehicle: carboxymethylcellulose (CMC) 98 % of control | dose: 100.0 mg/kg/injection, schedule: Q01DX Z (ip), vehicle: carboxymethylcellulose (CMC) 109 % of control | dose: 125.0 mg/kg/injection, schedule: Q01DX Z (ip), vehicle: carboxymethylcellulose (CMC) 95 % of control

C=C1N(c2ccc(OC)c(OC)c2)C(=O)OC12CCCCC2
inactive: dose: 25.0 mg/kg/injection, schedule: Q04DX003 (ip), vehicle: Klucel (hydroxypropylcellulose) (HPC) 93 % of control | dose: 50.0 mg/kg/injection, schedule: Q04DX003 (ip), vehicle: Klucel (hydroxypropylcellulose) (HPC) 93 % of control | [5] 102 % of control | [7] 96 % of control

COc1nn(C)c(=O)c2ncccc12
inactive: dose: 15.0 mg/kg/injection, schedule: Q01DX001 (ip), vehicle: carboxymethylcellulose (CMC) 93 % of control | dose: 30.0 mg/kg/injection, schedule: Q01DX001 (ip), vehicle: carboxymethylcellulose (CMC) 92 % of control

CCCCOc1c(OCCCC)c(=O)c1=O
inactive: dose: 178.0 mg/kg/injection, schedule: Q01DX001 (ip), vehicle: saline 106 % of control | dose: 267.0 mg/kg/injection, schedule: Q01DX001 (ip), vehicle: saline 106 % of control
